Patent US20070066526A1, “Method for reducing risk of and extent of injury due to stroke in hypertensive subjects” (priority 2005, published 2007)

Legend:
[1] = tested on: hypertensive Dahl salt-sensitive rats; assay: Middle cerebral artery occlusion, infarct size by TTC staining in hypertensive Dahl rats; assay type: in vivo, rat
[2] = molecular target: T1, εPKC (Rattus norvegicus, UniProt P09216); assay: Western blot of εPKC translocation in brain of Dahl hypertensive rats; details: sustained subcutaneous pump delivery, same blot reprobed
T1 sequence (P09216 1-737): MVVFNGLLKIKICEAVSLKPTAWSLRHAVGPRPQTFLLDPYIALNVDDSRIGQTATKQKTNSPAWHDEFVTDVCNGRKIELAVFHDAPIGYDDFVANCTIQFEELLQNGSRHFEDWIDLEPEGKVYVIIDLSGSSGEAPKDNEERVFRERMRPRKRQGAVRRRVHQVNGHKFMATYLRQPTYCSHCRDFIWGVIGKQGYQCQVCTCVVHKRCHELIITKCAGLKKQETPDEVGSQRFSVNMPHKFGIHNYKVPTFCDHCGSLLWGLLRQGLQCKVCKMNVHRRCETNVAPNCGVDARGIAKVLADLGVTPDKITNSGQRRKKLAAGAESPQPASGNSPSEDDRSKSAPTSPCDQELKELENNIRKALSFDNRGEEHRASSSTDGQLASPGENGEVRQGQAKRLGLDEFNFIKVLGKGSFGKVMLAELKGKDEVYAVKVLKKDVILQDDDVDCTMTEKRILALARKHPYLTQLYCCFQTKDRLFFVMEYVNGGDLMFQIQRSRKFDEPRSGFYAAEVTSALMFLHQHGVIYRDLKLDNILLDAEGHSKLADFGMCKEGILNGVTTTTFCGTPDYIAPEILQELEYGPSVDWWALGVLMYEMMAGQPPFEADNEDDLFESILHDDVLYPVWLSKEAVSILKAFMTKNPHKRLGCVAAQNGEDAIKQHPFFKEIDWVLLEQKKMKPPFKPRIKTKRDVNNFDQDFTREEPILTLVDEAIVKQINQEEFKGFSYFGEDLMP

[3] = tested on: Dahl salt-sensitive rats; assay: Laser Doppler flowmetry of cerebral blood flow in hypertensive Dahl rats; details: 11 weeks old, intraperitoneal injection 0.2 mg/kg, 25 min post-treatment vs baseline, mean±SEM
Method: Six week old Dahl salt-sensitive rats were placed on an 8% high-salt diet to induce hypertension. Cerebral brain flow (CBF) was measured at 11 weeks, 4 weeks following high-salt diet onset. A burr hole was drilled 1 mm posterior and 6 mm lateral to bregma, corresponding to the ischemic territory. A laser Doppler transducer probe (Laserflo) was affixed above the cortex using a stereotaxic frame (Harvard Apparatus, MA), and a baseline CBF was established over a period of 20-30 minutes (1 minute intervals), Tat control peptide (n=5) or δV1-1-Tat peptide (n=15) was injected by intraperitoneal injection (0.2 mg/kg in 1 mL) and cerebral brain flow was monitored for an additional 20-30 minutes. Cerebral brain flow was also measured in the sham control animals (n=4).
Analysis of changes in cerebral brain flow was performed by comparing the baseline flow-rate at 20 minutes, to the flow-rate at 25 minutes post-treatment in all animals. Results were expressed as both a scattergram of percent flow changes in individual animals, and the mean±SEM flow in each group. Statistical analysis between Tat and δV1-1-Tat treatment groups was performed using an unpaired t-test.

[4] = molecular target: δPKC (Rattus norvegicus, UniProt P09215); assay: Western blot of δPKC translocation (soluble to membrane fraction) in brain of Dahl hypertensive rats; details: sustained subcutaneous pump delivery 4-6 weeks, n=3
δPKC (Rattus norvegicus, UniProt P09215), sequence (P09215 whole entry): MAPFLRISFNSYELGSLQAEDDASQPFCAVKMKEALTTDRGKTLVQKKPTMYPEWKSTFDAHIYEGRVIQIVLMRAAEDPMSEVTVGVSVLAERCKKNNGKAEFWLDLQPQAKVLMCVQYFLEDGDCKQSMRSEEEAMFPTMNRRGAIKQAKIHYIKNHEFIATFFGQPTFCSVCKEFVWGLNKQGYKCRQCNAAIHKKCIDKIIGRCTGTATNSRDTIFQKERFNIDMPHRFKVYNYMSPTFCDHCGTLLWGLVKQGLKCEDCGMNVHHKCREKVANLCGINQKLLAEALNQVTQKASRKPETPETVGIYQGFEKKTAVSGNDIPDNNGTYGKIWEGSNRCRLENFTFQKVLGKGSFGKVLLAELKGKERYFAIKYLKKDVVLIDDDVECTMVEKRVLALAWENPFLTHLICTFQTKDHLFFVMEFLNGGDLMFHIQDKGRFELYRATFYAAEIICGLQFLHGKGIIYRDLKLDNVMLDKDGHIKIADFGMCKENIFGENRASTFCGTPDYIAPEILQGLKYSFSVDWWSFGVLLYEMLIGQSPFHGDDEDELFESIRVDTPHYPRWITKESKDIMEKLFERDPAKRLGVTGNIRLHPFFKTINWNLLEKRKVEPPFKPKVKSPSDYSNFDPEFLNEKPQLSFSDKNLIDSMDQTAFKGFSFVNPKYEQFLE
Method: Dahl rats were implanted with pumps for subcutaneous delivering δV1-1-Tat or Tat control peptide for 4-6 weeks. δPKC activity in brain samples was assessed by determining the translocation of the enzyme from the soluble, cytosolic fraction, to the membrane-bound fraction, a standard marker for PKC activation (Kraft, A. S. et al., Nature, 301:621-3 (1983)).
The density of the bands was measured to assess PKC translocation, as a measure of δPKC activation.
Brains from Dahl hypertensive rats that received δV1-1-Tat or Tat peptide delivery for 4 weeks, starting at 11 weeks of age, were quickly isolated and frozen. Tissue fractionation was performed to collect soluble (cytosolic) and particulate (membrane) fractions, as previously described (Johnson, J. A. et al., Life Sci., 57:1027-38(1995)). 5 μg of protein from each fraction was used forwestern blot analysis using a rabbit anti-phospho-serine 643 δPKC antibody (Santa Cruz Biotechnology; 1:500) followed with an anti-rabbit secondary antibody (Amersham). Density of δPKC bands was measured to assess translocation of PKC from the cytosol to membrane fractions, a measure of activation (Kraft, A. S. et al., Nature, 301:621-3 (1983)). Blots were then reprobed with a rabbit anti-δPKC antibody (Santa Cruz Biotechnology; 1:500), to assess translocation of the δPKC isozyme. Statistical analysis was performed using students t-test.

[5] = tested on: δPKC; details: normotensive animals, sustained delivery; cited from earlier work

YGRKKRRQRRR [Tat]
infarct size (relative stroke area) ([1]; rat, in vivo, sc): 39±3%
εPKC activation, percent translocation [2]: 46±5 % translocation
change in cerebral blood flow from baseline [3]: −5±9%
δPKC activation, percent translocation [4]: 49±1 % translocation

SFNSYELGSL (listed as Rattus norvegicus) [δV1-1]
reduction of infarct size compared with Tat controls ([1]; 90 min MCA occlusion, 24 h reperfusion, chronic subcutaneous pump delivery, animals without hemorrhage): 25%
infarct size (relative stroke area) ([1]; 90 min MCA occlusion, 24 h reperfusion, chronic subcutaneous pump delivery, animals without hemorrhage, n=6-7 per group): 30±4%
δPKC activity in the brain [5]: inhibits δPKC activity
change in cerebral blood flow from baseline [3]: 12%
